# Reference: patent publication US20260234144A1 (TAY THERAPEUTICS LIMITED, priority 2023, published 2026)
# Tested on: R223X stop codon in the mutated luciferase gene, ADXC8 luciferase reporter cell line
# Experiment: cells
# Assay type: cell-based
# Settings: ADXC8 cells, 24 hours; for EC (100% of 200 uM G418 response) / Emax: 24 h; for EC (100% of 200 uM G418 response): read-out: pC100%, negative logarithm of the concentration giving the same response as 200 μM G418; for Emax: read-out: Fold Over Control, maximum fold response relative to 200 μM G418; for pC100%: negative logarithm of the concentration giving the same response as 200 μM G418
# Procedure: The read-through activity of compounds was assessed using the ADXC8 luciferase reporter cell line (generated as described in McElroy et al. PLoS Biology (2013), 11, e1001593). […] The amount of luciferase is measured by adding a lysis buffer containing luciferin substrate and detecting luminescence using the following protocol:
# ADXC8 cells in assay media (DMEM+10% FBS) were seeded into 96-well tissue culture treated white plates (Greiner) to a density of 13,000 cells per well and incubated for 24 hours at 37° C. in an atmosphere of 5% CO2. […] Plates were incubated for a further 24 hours at 37° C. in an atmosphere of 5% CO2. Cells treated with 200 μM G418 (with 1% DMSO) were used as a positive control.
# Cell viability and firefly luciferase activity were measured in the same assay wells. CellTiter-Fluor™ reagent was prepared as per manufacturer's instructions (Promega E7120) and 20 μl of 5× CellTiter-Fluor™ reagent was added to all wells, briefly mixed by orbital shaking (300-500 rpm for −30 seconds) and the plates incubated for 30-45 minutes at 37° C. in an atmosphere of 5% C02. Cell viability was measured by monitoring fluorescence on a CLARIOstar® plate reader (BMG Labtech). Cells containing 1% DMSO were used as a positive control and cells with 400 μM Doxorubicin were used as negative control to define 100 and 0% respectively. ONE-Glo™ luciferase assay buffer (Promega E7120) was prepared according to manufacturer's instructions and 100 μl of luciferase reagent was added to each well and the plate incubated at RT for 3 mins before measuring the luminescence on the CLARIOstar® plate reader (BMG Labtech). Cells treated with 200 μM G418 (with 1% DMSO) were used as a positive control and arbitrarily assigned a value of 100%. Cells treated with 1% DMSO were used as the negative control to define 0% response.
# Concentration effect curves were analysed using non-linear regression using the CDD Vault from Collaborative Drug Discovery (Burlingame, CA). […] The bottom and top of the curves were constrained to 0 and the maximum measured response respectively. From the fitted curves, the software derived C100% values (the concentration giving the same response as 200 μM G418) for each compound. The negative logarithm of C100% is reported as pC100% (Table 1). In addition to pC100% values, the maximum fold response relative to 200 μM G418 (Fold over Control) was also captured (Table 1). A pC100% categorisation of ‘-’ in Table 1 represents examples in which a pC100% response was not reached when assayed at a concentration of 100 μM. A pC100% categorisation of ‘*’ in Table 1 represents examples in which a pC100% response was not reached when assayed at a concentration of 30 μM.
Structure (SMILES),EC (100% of 200 uM G418 response) [µM],Emax [%],pC100%
CN1CCC(Nc2nc(N)c3ccc(-c4cccc(C#N)c4)nc3n2)CC1 [Example 112],1 to 10,–,–
CNc1nc(N[C@@H]2CN[C@H](C)C2)nc2nc(C)cc(C)c12 [Example 372],10 to 100,100 to 3000,–
Cc1cc(C)c2c(N)nc(N[C@H]3CCNC[C@@H]3F)nc2n1 [Example 590],1 to 10,–,–
CNc1nc(NC2CC[C@H]2N(C)C)nc2nc(C)cc(C)c12 (stereo partly drawn) [Example 412],1 to 10,–,–
CNc1nc(N[C@H]2CN(C)C[C@@H]2F)nc2nc(C)c3c(c12)CCC3 [Example 365],0.1 to 1,100 to 3000,–
CN1CCC(Nc2nc(N)c3ccc(-c4ccc(C(=O)N(C)C)cc4)nc3n2)CC1 [Example 71],> 100,0 to 100,–
CNCc1cccc(-c2ccc3c(N)nc(NC4CCN(C)CC4)nc3n2)c1 [Example 109],10 to 100,100 to 3000,–
Cc1cc(-c2ccccc2)nc2nc(N[C@@H]3CCNC3)nc(N)c12 [Example 301],1 to 10,–,–
Cc1cc(C)c2c(N)nc(N[C@@H]3CCN(CC(F)(F)F)C3)nc2n1 [Example 311],> 31.6,0 to 100,–
Cc1cc(C)c2c(N)nc(NC3CCN(Cc4cnn(C)c4)CC3)nc2n1 [Example 568],1 to 10,100 to 3000,–
CNc1nc(N[C@H]2CNC[C@@H]2F)nc2nc(C)cc(C)c12 [Example 334],1 to 10,–,–
CN1CCC(Nc2nc(N)c3ccc(-c4cncn4C)nc3n2)CC1 [Example 114],> 100,0 to 100,–
Cc1c2c(nc3nc(NC4CCN(Cc5ccc(C#N)cc5)CC4)nc(NCCO)c13)CCC2 [Example 555],0.1 to 1,100 to 3000,–
Cc1nc2nc(NC3CCN(Cc4ccncc4O)CC3)nc(N)c2c2c1CCC2 [Example 530],0.1 to 1,100 to 3000,–
Cc1cc(C)c2c(N)nc(N[C@H]3CN4CCC3CC4)nc2n1 [Example 198],> 31.6,0 to 100,–
"COc1cc(C)nc2nc(N[C@@H]3CCN(C)C3)nc(N)c12 [Example 525, (R)-5-methoxy-7-methyl-N^2-(1-methylpyrrolidin-3-yl)pyrido[2,3-d]pyrimidine-2,4-diamine]",10 to 100,100 to 3000,–
CNc1nc(N[C@H]2CN(C)C[C@H]2C)nc2nc(C)cc(C)c12 [Example 379],1 to 10,100 to 3000,–
Cc1cc(C)c2c(N)nc(NC3CCNCC3)nc2n1 [Example 279],1 to 10,100 to 3000,–
Cc1cc(C)c2c(N)nc(NCCC3CCCN(C)C3)nc2n1 (stereo not drawn) [Example 159],1 to 10,–,–
Cc1cc(C)c2c(N)nc(NC[C@H]3CNCCO3)nc2n1 [Example 161],10 to 100,100 to 3000,–
CN1CCC(Nc2nc(N)c3ccc(-c4ccccc4C(=O)O)nc3n2)CC1 [Example 87],> 100,0 to 100,–
"CNc1nc(NC2CNCC2C(F)F)nc2nc(C)cc(C)c12 (single isomer, unassigned) [Example 429]",–,–,+++ (pC100% > 6.0 ≤ 7.0)
Cc1nc2nc(NC3CCN(Cc4ccc(C#N)c(F)c4)CC3)nc(N)c2c2c1CCC2 [Example 528],0.1 to 1,100 to 3000,–
Cc1cc(C)c2c(N)nc(NCCCN(C)C)nc2n1 [Example 154],1 to 10,–,–
"CNc1nc(NC2C3CCC2CN(C(C)C)C3)nc2nc(C)cc(C)c12 (single isomer, unassigned) [Example 435]",–,100 to 3000,++ (pC100% > 5.0 ≤ 6.0)
